Target: T1, human Arginine Vasopressin Receptor V2 (AVPR2) (Homo sapiens, UniProt P30518)
T1 construct: host or cells: 1321N1 (cAMPZen V2 assay ready frozen cells)
Assay: Vasopressin V2 receptor antagonist assay (TR-FRET cAMP, 1321N1 cells)
Assay type: cell-based
Description: The purpose of the assay was to determine the inhibitory effect of synthesized compounds on the Vasopressin receptor 2. The assay was performed in commercially available 1321N1 cells expressing the human Arginine Vasopressin Receptor V2 (AVPR2) (Perkin Elmer #ES-363-CF). Arginine Vasopressin (AVP) evokes an increase in intracellular cAMP in these cells which is measured in a TR-FRET assay using a Europium cAMP tracer and ULight labelled antibody reagents contained in a LANCE Ultra cAMP kit (Perkin Elmer #TRF0263). Increases in cAMP in the assay result in a reduction in TR-FRET as the cAMP produced by the stimulated cells competes with the Eu-cAMP tracer for binding sites on the ULight labelled antibody. Test compounds were assessed for their ability to affect the magnitude of the response to AVP, with antagonists showing a concentration-dependent decrease in the AVP-mediated reduction in TR-FRET signal.
cAMPZen V2 assay ready cells were thawed at 37° C. and resuspended directly from frozen in 9 ml growth medium consisting of DMEM supplemented with 10% v/v fetal bovine serum, 1× non-essential amino acids, and 1 mM sodium pyruvate. Cells were spun at 1000 rpm for 3 minutes and the supernatant was carefully removed and discarded. The pellet was resuspended in 5 ml stimulation buffer and the cell density determined using the Vi-Cell automated cell counter. The cell suspension was diluted to a 0.2×10^6/ml suspension ready for plating. To all wells of a white 384-well Optiplate (Perkin Elmer #6007299) 5 μL of cells in stimulation buffer were dispensed (1,000 cells per well). Stimulation buffer consisted of HBSS (+Ca/+Mg) supplemented with 5 mM HEPES, 0.1% BSA stabiliser and 0.5 mM IBMX.
At the start of each assay day the potency of AVP was assessed and an EC80 concentration determined for subsequent compound profiling. Assays were performed by first an addition of 2.5 μl of control or test compound at 4× final concentration in stimulation buffer followed by 2.5 μl of AVP at 4× final concentration in stimulation buffer. After a 1 hour reaction, detection reagents were added by first an addition of 5 μl EU-cAMP tracer, followed by 5 μl ULight-anti-cAMP both diluted as per the manufacturer's instructions. After a one hour incubation, plates were ready to be read (signals then remained stable for up to 24 hours). Changes in time resolved fluorescence were monitored with excitation via a laser (337 nm) measuring both 615 nm and 665 nm emission wavelengths. […] For compound profiling, test compounds were dispensed by the Labcyte Echo (10-point curve, 1:3 dilutions) in a target 0.1 μl volume then diluted 750-fold in stimulation buffer containing 3% DMSO prior to addition to the cells. At the end of the incubation period, 2.5 μl of AVP in stimulation buffer was added at the previously determined EC80 concentration.
In-plate controls for the assay included a Tolvaptan concentration-response curve as the reference V2 antagonist and an AVP concentration-response curve to confirm the reproducibility of the EC80 used for the compound challenge.

T1 sequence (P30518 whole entry): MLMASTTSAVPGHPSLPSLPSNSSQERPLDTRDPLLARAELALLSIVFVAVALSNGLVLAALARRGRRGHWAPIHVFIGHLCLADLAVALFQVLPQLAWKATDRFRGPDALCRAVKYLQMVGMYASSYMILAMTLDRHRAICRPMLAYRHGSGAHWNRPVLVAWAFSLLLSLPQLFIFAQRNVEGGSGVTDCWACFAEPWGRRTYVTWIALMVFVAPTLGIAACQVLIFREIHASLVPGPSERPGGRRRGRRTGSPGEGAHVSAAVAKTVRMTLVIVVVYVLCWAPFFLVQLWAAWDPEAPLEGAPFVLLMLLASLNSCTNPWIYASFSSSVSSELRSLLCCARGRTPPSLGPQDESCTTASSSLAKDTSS

| IC50 [µM] | Compound |
| --- | --- |
| ≥ 1 | CC1COc2cc(F)c(F)cc2N1C(=O)N1CC2(C1)CN(c1ncccn1)C2 (stereo not drawn) [19-1, (6,7-difluoro-3-methyl-2,3-dihydro-4H-benzo[b][1,4]oxazin-4-yl)(6-(pyrimidin-2-yl)-2,6-diazaspiro[3.3]heptan-2-yl)methanone] |
| ≥ 1 | O=C(N1CC2(C1)CN(c1ccc(F)cn1)C2)N1CCC(F)(F)c2cc(Cl)ccc21 [17-1, (6-chloro-4,4-difluoro-3,4-dihydroquinolin-1(2H)-yl)(6-(5-fluoropyridin-2-yl)-2,6-diazaspiro[3.3]heptan-2-yl)methanone] |
| ≥ 1 | O=C(N1CC2(C1)CN(c1ccc(F)cn1)C2)N1CCOc2cc(F)c(F)cc21 [9-6] |
| 0.1 to 0.5 | Cc1cnc(N2CC3(CN(C(=O)N4c5ccc(Cl)cc5OCC4C)C3)C2)nc1 (stereo not drawn) [20-13] |
| ≥ 1 | O=C(N1CC2(C1)CN(c1ccccn1)C2)N1CCOc2cc(Cl)ccc21 [8-2] |
| ≥ 1 | O=C(N1CC2(C1)CN(c1cnccn1)C2)N1CCc2cc(Cl)ccc21 [8-14] |
| ≥ 1 | COc1ccc2c(c1)OCCN2C(=O)N1CC2(C1)CN(c1ccc(F)cn1)C2 [9-2] |
| ≥ 1 | CC1COc2cc(F)ccc2N1C(=O)N1CC2(C1)CN(c1ncccn1)C2 (stereo not drawn) [18-1, (7-fluoro-3-methyl-2,3-dihydro-4H-benzo[b][1,4]oxazin-4-yl)(6-(pyrimidin-2-yl)-2,6-diazaspiro[3.3]heptan-2-yl)methanone] |
| ≥ 1 | O=C(N1CC2(C1)CN(c1cnccn1)C2)N1CCOc2cc(Cl)ccc21 [8-3] |
| ≥ 1 | CC1COc2cc(F)c(F)cc2N1C(=O)N1CC2(C1)CN(c1cccnn1)C2 (stereo not drawn) [19-3] |
| ≥ 1 | O=C(N1CC2(C1)CN(c1ccc(F)cn1)C2)N1CCc2cc(Cl)ccc21 [8-11] |

More lines, now with the values behind:

| Compound | IC50 [µM] |
| --- | --- |
| CC1COc2cc(F)c(F)cc2N1C(=O)N1CC2(C1)CN(c1cccnn1)C2 (single isomer, unassigned) [19-3-B] | ≥ 1 |
| CC1COc2cc(Cl)ccc2N1C(=O)N1CC2(C1)CN(c1cccnn1)C2 (single isomer, unassigned) [9-1-A] | ≥ 1 |
| CC1COc2cc(F)ccc2N1C(=O)N1CC2(C1)CN(c1ncc(F)cn1)C2 (single isomer, unassigned) [18-4-B] | ≥ 1 |
| O=C(N1CC2(C1)CN(c1ncccc1F)C2)N1CCc2cc(Cl)ccc21 [1-76] | ≥ 1 |
| Cc1nc(N2CC3(CN(C(=O)N4CCOc5cc(Cl)ccc54)C3)C2)ncc1F [6-1, (7-chloro-2,3-dihydro-4H-benzo[b][1,4]oxazin-4-yl)(6-(5-fluoro-4-methylpyrimidin-2-yl)-2,6-diazaspiro[3.3]heptan-2-yl)methanone] | ≥ 1 |
| COc1ccnc(N2CC3(CN(C(=O)N4CCOc5cc(Cl)ccc54)C3)C2)c1 [1-15] | ≥ 1 |
| CC1COc2cc(Cl)ccc2N1C(=O)N1CC2(C1)CN(c1cccnc1)C2 (single isomer, unassigned) [20-1-B] | ≥ 1 |
| O=C(N1CC2(C1)CN(c1cccnn1)C2)N1CCOc2cc(Cl)c(F)cc21 [1-81] | ≥ 1 |
| CC1COc2cc(F)c(F)cc2N1C(=O)N1CC2(C1)CN(c1ccc(F)cn1)C2 (single isomer, unassigned) [19-5-B] | < 0.1 |
| Cc1ccnc(N2CC3(CN(C(=O)N4CCOc5cc(Cl)ccc54)C3)C2)c1 [1-14] | ≥ 1 |
| O=C(N1CC2(C1)CN(c1ncccn1)C2)N1CCOc2cc(Cl)ccc21 [1-4] | ≥ 1 |
| Cc1cccnc1N1CC2(CN(C(=O)N3CCOc4cc(Cl)ccc43)C2)C1 [1-5] | ≥ 1 |
| O=C(N1CC2(C1)CN(c1ccccn1)C2)N1CCc2cc(Cl)ccc21 [1-77] | ≥ 1 |
| O=C(N1CC2(C1)CN(c1noc3ccccc13)C2)N1CCOc2cc(Cl)ccc21 [4-1, (6-(benzo[d]isoxazol-3-yl)-2,6-diazaspiro[3.3]heptan-2-yl)(7-chloro-2,3-dihydro-4H-benzo[b][1,4]oxazin-4-yl)methanone] | ≥ 1 |
| O=C(N1CC2(C1)CN(c1cc(F)ccn1)C2)N1CCc2cc(Cl)ccc21 [1-79] | ≥ 1 |
| Cc1cncc(N2CC3(CN(C(=O)N4c5ccc(F)cc5OCC4C)C3)C2)n1 (single isomer, unassigned) [20-2-A] | ≥ 1 |

From US12152038B2, “Vasopressin receptor antagonists and products and methods related thereto” (Neumora Therapeutics, Inc., priority 2017, dated 2024)
